Data: ChEMBL document CHEMBL5465560, “Selectivity Literature for EUbOPEN Chemogenomic Library” (2024)
One block for each compound: values may come before it.

Tests used:
[1] = molecular target: Tyrosine-protein kinase Fes/Fps (Homo sapiens) (UniProt P07332); experiment: Selectivity interaction (KinaseProfiler screening (Millipore)) EUB0000601a FES; conditions: at 3 µM
Focal adhesion kinase 1 = Focal adhesion kinase 1 (Homo sapiens, UniProt Q05397); experiment: Selectivity interaction (Ambit KINOMEscan and KiNATiv profiling in Jurkat cells) EUB0000090b PTK2; format: cell-based; conditions: at 1 µM
Focal adhesion kinase 1, sequence (Q05397 2-1052 limits assumed): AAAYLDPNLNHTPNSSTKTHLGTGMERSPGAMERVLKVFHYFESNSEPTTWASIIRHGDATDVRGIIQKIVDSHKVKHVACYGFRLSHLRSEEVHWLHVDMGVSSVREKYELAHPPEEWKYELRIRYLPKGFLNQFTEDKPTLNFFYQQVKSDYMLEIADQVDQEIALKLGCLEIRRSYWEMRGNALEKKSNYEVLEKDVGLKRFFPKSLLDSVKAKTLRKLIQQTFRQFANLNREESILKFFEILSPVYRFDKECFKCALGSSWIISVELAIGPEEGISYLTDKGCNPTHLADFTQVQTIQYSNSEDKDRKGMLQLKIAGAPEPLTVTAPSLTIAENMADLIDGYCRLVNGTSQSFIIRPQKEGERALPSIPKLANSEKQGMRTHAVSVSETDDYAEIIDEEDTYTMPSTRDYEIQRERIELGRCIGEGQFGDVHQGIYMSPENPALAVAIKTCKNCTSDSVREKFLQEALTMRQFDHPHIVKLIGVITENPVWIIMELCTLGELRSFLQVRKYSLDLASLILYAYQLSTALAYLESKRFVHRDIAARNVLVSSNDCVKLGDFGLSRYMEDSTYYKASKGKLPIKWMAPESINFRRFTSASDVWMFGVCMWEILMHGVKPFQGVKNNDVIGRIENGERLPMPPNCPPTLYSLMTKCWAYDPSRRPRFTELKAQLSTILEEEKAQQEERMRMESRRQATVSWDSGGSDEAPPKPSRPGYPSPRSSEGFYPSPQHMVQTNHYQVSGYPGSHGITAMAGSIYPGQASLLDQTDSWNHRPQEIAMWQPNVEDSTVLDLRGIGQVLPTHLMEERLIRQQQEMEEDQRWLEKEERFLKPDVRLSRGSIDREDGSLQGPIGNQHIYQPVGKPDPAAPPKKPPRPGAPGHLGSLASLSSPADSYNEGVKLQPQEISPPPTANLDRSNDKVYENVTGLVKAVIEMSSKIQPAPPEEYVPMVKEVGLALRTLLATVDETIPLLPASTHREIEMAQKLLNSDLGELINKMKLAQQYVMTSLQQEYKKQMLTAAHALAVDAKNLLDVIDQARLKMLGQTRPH

[2] = tested on: Serine/threonine-protein kinase B-raf (Homo sapiens), P15056 [V600E]; conditions: at 10 µM
[3] = molecular target: T1, Serine/threonine-protein kinase tousled-like 1 (Homo sapiens) (UniProt Q9UKI8); experiment: Selectivity interaction (KinomeScan (DiscoverX)) EUB0001079a TLK1; conditions: at 1 µM
T1 sequence (whole entry): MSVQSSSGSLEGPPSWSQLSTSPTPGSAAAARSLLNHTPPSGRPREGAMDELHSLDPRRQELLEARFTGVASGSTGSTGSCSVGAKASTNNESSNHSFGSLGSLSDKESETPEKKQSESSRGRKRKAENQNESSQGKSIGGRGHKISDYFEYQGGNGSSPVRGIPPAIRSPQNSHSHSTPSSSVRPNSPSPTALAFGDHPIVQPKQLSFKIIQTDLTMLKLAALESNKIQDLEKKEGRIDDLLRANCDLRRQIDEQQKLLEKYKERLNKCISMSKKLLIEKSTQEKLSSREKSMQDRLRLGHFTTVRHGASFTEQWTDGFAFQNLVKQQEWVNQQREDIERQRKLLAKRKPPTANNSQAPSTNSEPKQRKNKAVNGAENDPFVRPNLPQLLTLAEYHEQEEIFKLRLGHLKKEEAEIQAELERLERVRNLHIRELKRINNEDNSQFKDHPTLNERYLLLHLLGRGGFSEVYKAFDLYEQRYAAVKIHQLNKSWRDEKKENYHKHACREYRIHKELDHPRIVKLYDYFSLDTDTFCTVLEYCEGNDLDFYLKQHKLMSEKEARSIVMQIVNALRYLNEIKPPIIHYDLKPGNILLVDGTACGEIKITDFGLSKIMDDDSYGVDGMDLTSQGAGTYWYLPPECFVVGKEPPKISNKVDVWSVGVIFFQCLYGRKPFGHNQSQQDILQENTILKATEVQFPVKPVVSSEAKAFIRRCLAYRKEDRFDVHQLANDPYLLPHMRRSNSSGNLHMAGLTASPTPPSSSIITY

[4] = molecular target: Protein kinase C delta type (Homo sapiens) (UniProt Q05655); experiment: Selectivity interaction (KinomeScan (DiscoverX)) EUB0001079a PRKCD; conditions: at 1 µM
[5] = molecular target: Ephrin type-A receptor 7 (Homo sapiens) (UniProt Q15375); experiment: Selectivity interaction (KinomeScan (DiscoverX)) EUB0001079a EPHA7; conditions: at 1 µM
Ephrin type-A receptor 7 (Homo sapiens), sequence (Q15375 28-998 limits assumed): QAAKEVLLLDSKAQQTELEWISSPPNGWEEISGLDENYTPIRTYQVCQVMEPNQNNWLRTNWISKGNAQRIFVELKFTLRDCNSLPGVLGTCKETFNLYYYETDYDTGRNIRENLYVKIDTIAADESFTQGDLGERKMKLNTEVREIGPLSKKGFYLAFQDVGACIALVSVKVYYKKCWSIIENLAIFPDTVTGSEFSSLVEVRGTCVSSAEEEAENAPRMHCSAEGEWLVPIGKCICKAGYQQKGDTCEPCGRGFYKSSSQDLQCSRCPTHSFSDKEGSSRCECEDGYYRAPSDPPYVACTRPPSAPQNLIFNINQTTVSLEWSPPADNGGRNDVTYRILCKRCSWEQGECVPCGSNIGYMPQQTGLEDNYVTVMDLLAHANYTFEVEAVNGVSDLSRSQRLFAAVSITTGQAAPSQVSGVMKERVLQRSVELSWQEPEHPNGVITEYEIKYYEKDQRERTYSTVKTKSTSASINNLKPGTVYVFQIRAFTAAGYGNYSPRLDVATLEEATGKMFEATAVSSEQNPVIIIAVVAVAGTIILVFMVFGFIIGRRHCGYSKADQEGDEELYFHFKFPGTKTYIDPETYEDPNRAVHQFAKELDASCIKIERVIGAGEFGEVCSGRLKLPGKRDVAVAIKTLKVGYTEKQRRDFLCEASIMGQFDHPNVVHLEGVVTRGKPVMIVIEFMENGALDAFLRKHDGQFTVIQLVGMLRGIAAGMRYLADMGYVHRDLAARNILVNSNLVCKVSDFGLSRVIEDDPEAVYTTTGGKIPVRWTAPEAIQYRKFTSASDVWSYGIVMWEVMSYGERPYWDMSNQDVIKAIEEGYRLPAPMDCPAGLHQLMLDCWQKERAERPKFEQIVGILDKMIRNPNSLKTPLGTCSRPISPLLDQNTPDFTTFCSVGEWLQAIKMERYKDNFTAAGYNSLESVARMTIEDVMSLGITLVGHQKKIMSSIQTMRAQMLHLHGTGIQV

[6] = molecular target: Death-associated protein kinase 2 (Homo sapiens) (UniProt Q9UIK4); experiment: Selectivity interaction (KinomeScan (DiscoverX)) EUB0000607a DAPK2; conditions: at 10 µM
[7] = molecular target: Wee1-like protein kinase (Homo sapiens) (UniProt P30291); experiment: Selectivity interaction (KinomeScan (DiscoverX)) EUB0000607a WEE1; conditions: at 10 µM
Wee1-like protein kinase (Homo sapiens), sequence (P30291 whole entry, looked up): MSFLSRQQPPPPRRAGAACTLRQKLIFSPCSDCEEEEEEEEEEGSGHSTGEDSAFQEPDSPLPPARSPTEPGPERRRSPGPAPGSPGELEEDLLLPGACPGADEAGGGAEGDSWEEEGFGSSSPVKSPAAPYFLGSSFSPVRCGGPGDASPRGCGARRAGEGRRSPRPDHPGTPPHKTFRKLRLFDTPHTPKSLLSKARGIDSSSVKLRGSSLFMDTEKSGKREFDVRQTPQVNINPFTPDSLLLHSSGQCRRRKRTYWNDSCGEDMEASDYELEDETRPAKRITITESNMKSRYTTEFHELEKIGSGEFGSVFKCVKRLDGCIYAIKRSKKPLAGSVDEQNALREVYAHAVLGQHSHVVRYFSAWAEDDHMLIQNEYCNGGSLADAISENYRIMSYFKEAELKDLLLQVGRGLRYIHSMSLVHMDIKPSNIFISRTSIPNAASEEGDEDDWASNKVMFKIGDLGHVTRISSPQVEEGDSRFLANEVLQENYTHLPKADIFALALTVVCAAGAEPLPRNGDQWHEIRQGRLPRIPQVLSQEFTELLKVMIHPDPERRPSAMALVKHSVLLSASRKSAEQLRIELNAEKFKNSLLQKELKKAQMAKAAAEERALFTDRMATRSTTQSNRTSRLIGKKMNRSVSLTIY

[8] = molecular target: T2, Cyclin-dependent kinase 2 (Homo sapiens, UniProt P24941); experiment: Selectivity interaction (KinomeScan (DiscoverX)) EUB0000607a CDK2; conditions: at 10 µM
[9] = molecular target: Leukocyte tyrosine kinase receptor (Homo sapiens, UniProt P29376); experiment: Selectivity interaction (KinomeScan (DiscoverX)) EUB0000045b LTK
Leukocyte tyrosine kinase receptor, sequence (P29376 whole entry): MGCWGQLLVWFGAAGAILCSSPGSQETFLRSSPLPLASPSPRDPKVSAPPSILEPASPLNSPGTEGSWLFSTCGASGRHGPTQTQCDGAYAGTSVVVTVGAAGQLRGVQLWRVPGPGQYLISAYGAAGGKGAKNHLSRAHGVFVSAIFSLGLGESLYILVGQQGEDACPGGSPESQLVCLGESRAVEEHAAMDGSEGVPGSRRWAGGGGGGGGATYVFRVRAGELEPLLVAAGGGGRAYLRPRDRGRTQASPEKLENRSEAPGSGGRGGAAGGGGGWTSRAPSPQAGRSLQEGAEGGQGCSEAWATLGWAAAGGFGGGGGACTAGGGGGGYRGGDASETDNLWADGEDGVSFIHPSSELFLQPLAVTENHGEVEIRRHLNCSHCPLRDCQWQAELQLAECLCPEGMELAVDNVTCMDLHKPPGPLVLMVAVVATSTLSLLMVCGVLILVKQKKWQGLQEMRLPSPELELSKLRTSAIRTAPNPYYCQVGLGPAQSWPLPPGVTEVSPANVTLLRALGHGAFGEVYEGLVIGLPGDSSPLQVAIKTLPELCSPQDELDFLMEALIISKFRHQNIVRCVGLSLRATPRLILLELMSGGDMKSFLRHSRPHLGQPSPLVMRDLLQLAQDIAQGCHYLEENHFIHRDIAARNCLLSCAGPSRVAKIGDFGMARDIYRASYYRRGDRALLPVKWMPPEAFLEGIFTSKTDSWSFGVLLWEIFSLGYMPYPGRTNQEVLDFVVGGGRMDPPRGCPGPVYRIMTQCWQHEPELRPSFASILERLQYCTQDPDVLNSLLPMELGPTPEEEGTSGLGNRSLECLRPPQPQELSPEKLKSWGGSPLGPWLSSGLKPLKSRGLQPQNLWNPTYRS

[10] = molecular target: Serine/threonine-protein kinase 33 (Homo sapiens) (UniProt Q9BYT3); experiment: Selectivity interaction (Upstate Kinase Profiler service (Millipore)) EUB0000056c STK33; conditions: at 1 µM
[11] = molecular target: Bromodomain-containing protein 4 (Homo sapiens, UniProt O60885); conditions: at 10 µM
[12] = molecular target: T2, Cyclin-dependent kinase 2; experiment: Selectivity interaction (ActivX KiNativ screen (kinase selectivity in THP-1 cell lysates)) EUB0000639a CDK2; format: subcellular; conditions: lysate, at 0.2 µM
[13] = molecular target: 5'-AMP-activated protein kinase catalytic subunit alpha-1 (Homo sapiens, UniProt Q13131); experiment: Selectivity interaction (ActivX KiNativ screen (kinase selectivity in THP-1 cell lysates)) EUB0000639a PRKAA1; format: subcellular; conditions: lysate, at 0.01 µM
[14] = molecular target: Cyclin-dependent kinase 7 (Homo sapiens, UniProt P50613); experiment: Selectivity interaction (ActivX KiNativ screen (kinase selectivity in THP-1 cell lysates)) EUB0000639a CDK7; format: subcellular; conditions: lysate, at 0.04 µM
[15] = molecular target: Myosin light chain kinase 2, skeletal/cardiac muscle (Homo sapiens) (UniProt Q9H1R3); experiment: Selectivity interaction (KinomeScan (DiscoverX)) EUB0000229b MYLK2; conditions: at 10 µM
Myosin light chain kinase 2, skeletal/cardiac muscle (Homo sapiens), sequence (Q9H1R3 whole entry): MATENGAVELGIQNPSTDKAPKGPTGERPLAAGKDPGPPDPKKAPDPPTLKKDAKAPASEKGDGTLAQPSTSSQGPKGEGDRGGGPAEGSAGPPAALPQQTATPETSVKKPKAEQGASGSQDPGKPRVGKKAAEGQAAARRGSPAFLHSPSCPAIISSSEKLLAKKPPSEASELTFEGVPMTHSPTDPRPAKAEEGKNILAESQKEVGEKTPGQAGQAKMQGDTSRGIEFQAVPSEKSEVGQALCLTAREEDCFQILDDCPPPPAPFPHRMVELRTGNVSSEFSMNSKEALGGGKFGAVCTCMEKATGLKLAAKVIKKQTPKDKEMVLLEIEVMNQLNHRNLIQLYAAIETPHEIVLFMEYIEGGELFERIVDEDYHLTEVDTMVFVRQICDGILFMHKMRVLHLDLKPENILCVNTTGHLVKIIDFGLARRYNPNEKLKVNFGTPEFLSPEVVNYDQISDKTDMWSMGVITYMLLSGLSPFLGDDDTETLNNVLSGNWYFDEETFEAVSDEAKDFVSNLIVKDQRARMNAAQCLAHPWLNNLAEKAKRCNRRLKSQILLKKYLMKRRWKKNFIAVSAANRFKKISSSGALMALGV

[16] = molecular target: Muscarinic acetylcholine receptor M2 (Homo sapiens, UniProt P08172); experiment: Selectivity interaction (Muscarinic M2 Calcium flux assay, agonist and antagonist mode ) EUB0000877a CHRM2
Muscarinic acetylcholine receptor M2, sequence (P08172 whole entry): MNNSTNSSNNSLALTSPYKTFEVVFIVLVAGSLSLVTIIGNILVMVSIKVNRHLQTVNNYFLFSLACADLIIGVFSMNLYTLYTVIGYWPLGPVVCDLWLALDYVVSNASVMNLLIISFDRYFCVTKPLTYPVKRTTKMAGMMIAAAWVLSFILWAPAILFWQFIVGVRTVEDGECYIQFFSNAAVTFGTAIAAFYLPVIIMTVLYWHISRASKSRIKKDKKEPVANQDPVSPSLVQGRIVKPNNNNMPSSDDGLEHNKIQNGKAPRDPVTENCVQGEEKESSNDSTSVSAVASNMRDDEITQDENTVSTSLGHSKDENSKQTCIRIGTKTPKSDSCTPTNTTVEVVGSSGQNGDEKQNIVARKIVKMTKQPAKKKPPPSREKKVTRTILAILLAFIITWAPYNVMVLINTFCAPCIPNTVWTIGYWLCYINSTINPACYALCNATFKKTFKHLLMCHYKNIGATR

[17] = molecular target: Serine/threonine-protein kinase SIK2 (Homo sapiens) (UniProt Q9H0K1); experiment: Selectivity interaction (KinomeScan (DiscoverX)) EUB0000666a SIK2; conditions: at 10 µM
[18] = molecular target: Glycogen synthase kinase-3 beta (Homo sapiens, UniProt P49841); experiment: Selectivity interaction (KinomeScan (DiscoverX)) EUB0000666a GSK3B; conditions: at 10 µM
Glycogen synthase kinase-3 beta, sequence (P49841 whole entry, looked up): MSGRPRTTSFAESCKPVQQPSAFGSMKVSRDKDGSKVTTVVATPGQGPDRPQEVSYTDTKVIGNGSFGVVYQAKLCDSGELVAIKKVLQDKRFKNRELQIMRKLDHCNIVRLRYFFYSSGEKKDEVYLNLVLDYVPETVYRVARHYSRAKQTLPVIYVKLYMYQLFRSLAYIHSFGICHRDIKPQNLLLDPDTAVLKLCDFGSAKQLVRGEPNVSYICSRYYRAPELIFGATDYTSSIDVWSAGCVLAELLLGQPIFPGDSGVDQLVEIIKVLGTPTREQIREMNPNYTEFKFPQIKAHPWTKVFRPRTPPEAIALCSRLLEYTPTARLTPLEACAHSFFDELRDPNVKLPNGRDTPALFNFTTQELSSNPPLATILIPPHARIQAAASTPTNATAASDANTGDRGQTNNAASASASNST

[19] = molecular target: T3, Dual specificity mitogen-activated protein kinase kinase 5 (Homo sapiens) (UniProt Q13163); experiment: Selectivity interaction (KinomeScan (DiscoverX)) EUB0000695a MAP2K5; conditions: at 100 nM
T3 sequence (whole entry): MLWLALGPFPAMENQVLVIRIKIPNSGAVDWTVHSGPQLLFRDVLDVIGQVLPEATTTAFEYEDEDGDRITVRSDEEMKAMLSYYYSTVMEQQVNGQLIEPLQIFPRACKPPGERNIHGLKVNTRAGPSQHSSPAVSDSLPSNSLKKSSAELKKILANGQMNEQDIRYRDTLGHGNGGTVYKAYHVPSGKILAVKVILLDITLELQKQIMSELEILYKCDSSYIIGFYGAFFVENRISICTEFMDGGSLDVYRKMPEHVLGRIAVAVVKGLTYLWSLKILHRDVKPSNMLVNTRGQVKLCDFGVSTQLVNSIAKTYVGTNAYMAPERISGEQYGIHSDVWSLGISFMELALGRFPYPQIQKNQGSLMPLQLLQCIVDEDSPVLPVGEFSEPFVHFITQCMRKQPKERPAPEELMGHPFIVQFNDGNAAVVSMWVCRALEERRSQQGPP

% of inhibition [1]: 82%
SMILES: CCc1cc(Nc2nccc(-c3c(-c4ccc(OC)c(C(=O)Nc5c(F)cccc5F)c4)nc4ccccn34)n2)c(OC)cc1N1CCC(N2CCN(S(C)(=O)=O)CC2)CC1

SMILES: CN(C)C/C=C/C(=O)Nc1ccc(C(=O)N2CCCC(Nc3ncc(Cl)c(-c4c[nH]c5ccccc45)n3)C2)cc1 (stereo unspecified)
% of control (Focal adhesion kinase 1): 74%

SMILES: CN(C)CCOc1ccc(-c2nc(-c3ccncc3)c(-c3ccc4c(c3)CC/C4=N\O)[nH]2)cc1
% of control [2]: 0%

SMILES: Nc1cnc(N2CCc3cc(S(=O)(=O)Nc4c(F)cc(Cl)cc4F)cc(N4CCCC4=O)c32)nc1 [TP-020n]
% of control [3]: 100%
% of control [4]: 86%
% of control [5]: 85%

SMILES: CNC(=O)Nc1ccc(-c2nc(N3CC4CCC(C3)O4)c3cnn(C4CCC5(CC4)OCCO5)c3n2)cc1
% of control [6]: 100%
% of control [7]: 79%
% of control [8]: 92%

SMILES: C=CC(=O)Nc1cc(-n2c(=O)ccc3cnc4ccc(-c5ccc(NS(C)(=O)=O)cc5)cc4c32)ccc1C
% of control ([9]; at 1 µM): 100%
% of control ([9]; at 10 µM): 100%

% of inhibition [10]: 39%
SMILES: Cc1ccc(-c2ccc3c(ccc4sc5c(c43)NC[C@@H](C)NC5=O)n2)cn1

SMILES: Cc1cc([C@@H](C)Nc2ccccc2C(=O)O)c2nc(N3CCOCC3)cc(=O)n2c1 [AZD-6482]
% of control [11]: 82%

% of inhibition [12]: -1%
% of inhibition [13]: 7.8%
% of inhibition [14]: -3.7%
SMILES: CC[C@@H]1[C@H](F)C(=O)N[C@@H]1COc1nccc2cc(C(N)=O)c(OC)cc12 [ZIMLOVISERTIB]

SMILES: COc1cc(N(C)c2ccnc3ccc(C(F)(F)F)cc23)cc(OC)c1OC
% binding [15]: 75%

IC50 [16]: > 30 µM
SMILES: CCC(=O)N1CC[C@H](Nc2ncnc3c2CN(c2cnc(OC)c(C(F)(F)F)c2)CC3)C1 [LENIOLISIB]

SMILES: O=C(NOC[C@H](O)CO)c1ccc(F)c(F)c1Nc1ccc(I)cc1F
% of control [17]: 92%
% of control [18]: 68%

SMILES: Cc1cc(F)c(C(=O)Nc2cccc(-c3nncn3C(C)C)n2)cc1-n1cnc(C2CC2)c1
% of control [19]: 94%
